Assay results as given in patent US5413990A, “N-terminus modified analogs of LHRH” (Tap Pharmaceuticals Inc., priority 1993, dated 1995).
Numbered stars: 1 amine (or outer) side, 2 acyl side, 3 side chain; on linkers, the order of the positions; unused ones are H or OH. Square brackets hold non-standard residues; d marks the D form. Peptide text beside a SMILES is read from it. * marks the point of attachment. dPhe(4-Cl) = N[C@H](Cc1ccc(Cl)cc1)C(=O)O; NH(2-(2-pyridyl)ethyl) = c1ccc(CCN*)nc1; Desaminotyrosyl = O=C(CCc1ccc(O)cc1)*; d2Nal = N[C@H](Cc1ccc2ccccc2c1)C(=O)O; Cyclopentanecarbonyl = O=C(C1CCCC1)*; Lys(iPr) = CC(C)NCCCC[C@H](N)C(=O)O; NMeY = CN[C@@H](Cc1ccc(O)cc1)C(=O)O; Cyclopropanecarbonyl = O=C(C1CC1)*; NHCH2(2-pyridyl) = c1ccc(CN*)nc1; Piperazinyl(4-Me) = CN1CCN(*)CC1; dCit = NC(=O)NCCC[C@@H](N)C(=O)O; d3Pal = N[C@H](Cc1cccnc1)C(=O)O; NH(3-picolyl) = c1cncc(CN*)c1; Suc = O=C(CCC(=O)[*:2])[*:1]; Nicotinoyl = O=C(c1cccnc1)*; Isobutyryl = CC(C)C(=O)*; PhAc = O=C(Cc1ccccc1)*; CO = O=C([*:1])[*:2]; Butyryl = CCCC(=O)*; X4 = N#CCC(=O)*; For = O=C*

Biological target: T1, LHRH (Rattus norvegicus, UniProt P30969)
T1 construct: evaluated in an in vitro test for LHRH antagonist potency (pA2); endogenous in cells; host or cells: pituitary cells (rat, from my own knowledge of the cited method)
T1 sequence (P30969 1-327): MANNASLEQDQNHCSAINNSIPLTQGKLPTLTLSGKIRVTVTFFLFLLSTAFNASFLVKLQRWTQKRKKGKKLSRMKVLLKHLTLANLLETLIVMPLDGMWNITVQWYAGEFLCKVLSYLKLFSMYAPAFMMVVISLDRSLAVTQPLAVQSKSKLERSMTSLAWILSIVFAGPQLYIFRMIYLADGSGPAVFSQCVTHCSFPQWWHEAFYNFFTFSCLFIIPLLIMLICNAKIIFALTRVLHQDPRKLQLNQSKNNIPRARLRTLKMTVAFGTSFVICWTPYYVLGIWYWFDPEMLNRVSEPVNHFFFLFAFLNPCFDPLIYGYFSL
Assay: in vitro test for LHRH antagonist potency (pA2)
Assay type: cell-based
Conditions: negative logarithm of the antagonist concentration required to shift the response curve produced by the agonist leuprolide to two-fold higher concentration
Protocol: Representative compounds of the present invention were evaluated in an in vitro test for LHRH antagonist potency (pA2). The test employed the method detailed in F. Haviv, et al. J. Med. Chem., 32:2340-2344 (1989). The values of pA2 are the negative logarithms of the concentration of the particular antagonist test compound required to shift the response curve produced by the agonist leuprolide to two-fold higher concentration. (Leuprolide is the LHRH agonist having the structure 5-oxo-Pro^1 -His^2 -Trp^3 -Ser^4 -Tyr^5 -D-Leu^6 -Leu^7 -Arg^8 -Pro^9 -NHEt and is disclosed and claimed in U.S. Pat. No. 4,005,063.) Typically pA2 values of 9.5 or greater are indicative of good LHRH antagonist potency, with values of 10.0 or greater being preferred.

Row | Structure (SMILES) | Kb
1 | CC(C)C[C@H](NC(=O)[C@@H](CCCNC(N)=O)NC(=O)[C@H](Cc1ccc(O)cc1)N(C)C(=O)[C@H](CO)NC(=O)[C@@H](Cc1cccnc1)NC(=O)[C@@H](Cc1ccc(Cl)cc1)NC(=O)[C@@H](Cc1ccc2ccccc2c1)NC(=O)NCc1ccccn1)C(=O)N[C@@H](CCCNC(=N)N)C(=O)N1CCC[C@H]1C(=O)N[C@H](C)C(N)=O [Example 8e, N-(2-Pyridyhnethylaminocarbonyl)-D2Nal-D4ClPhe-D3Pal- Ser-NMeTyr-DCit-Leu-Arg-Pro-DAlaNH2] ({NHCH2(2-pyridyl)-CO}-[d2Nal][dPhe(4-Cl)][d3Pal]S[NMeY][dCit]LRP[dA]-NH2) | 0.00676 nM
2 | CCCC(=O)N[C@H](Cc1ccc2ccccc2c1)C(=O)N[C@H](Cc1ccc(Cl)cc1)C(=O)N[C@H](Cc1cccnc1)C(=O)N[C@@H](CO)C(=O)N(C)[C@@H](Cc1ccc(O)cc1)C(=O)N[C@H](CCCCNC(=O)c1cccnc1)C(=O)N[C@@H](CC(C)C)C(=O)N[C@@H](CCCCNC(C)C)C(=O)N1CCC[C@H]1C(=O)N[C@H](C)C(N)=O [Example 2b, N-Butyryl-D2Nal-D4ClPhe-D3Pal-Ser-NMeTyr-DLys(N-epsilon-Nicotinyl)-Leu-Lys(N-epsilon-Isopropyl)-Pro-DAlaNH 2] (Butyryl-[d2Nal][dPhe(4-Cl)][d3Pal]S[NMeY][dK](Nicotinoyl)L[Lys(iPr)]P[dA]-NH2) | 0.00891 nM
3 | CC(C)C[C@H](NC(=O)[C@@H](CCCCNC(=O)c1cccnc1)NC(=O)[C@H](Cc1ccc(O)cc1)N(C)C(=O)[C@H](CO)NC(=O)[C@@H](Cc1cccnc1)NC(=O)[C@@H](Cc1ccc(Cl)cc1)NC(=O)[C@@H](Cc1ccc2ccccc2c1)NC(=O)C1CCCC1)C(=O)N[C@@H](CCCCNC(C)C)C(=O)N1CCC[C@H]1C(=O)N[C@H](C)C(N)=O [Example 2g, N-Cyclopentylcarbonyl-D2Nal-D4ClPhe-D3Pal-Ser-NMeTyr-DLys(N-epsilon-Nicotinyl)-Leu-Lys(N-epsilon-lsopropyl)-Pro-DAlaNH 2] (Cyclopentanecarbonyl-[d2Nal][dPhe(4-Cl)][d3Pal]S[NMeY][dK](Nicotinoyl)L[Lys(iPr)]P[dA]-NH2) | 0.0708 nM
4 | CC(C)C[C@H](NC(=O)[C@@H](CCCCNC(=O)c1cccnc1)NC(=O)[C@H](Cc1ccc(O)cc1)N(C)C(=O)[C@H](CO)NC(=O)[C@@H](Cc1cccnc1)NC(=O)[C@@H](Cc1ccc(Cl)cc1)NC(=O)[C@@H](Cc1ccc2ccccc2c1)NC(=O)CCc1ccc(O)cc1)C(=O)N[C@@H](CCCCNC(C)C)C(=O)N1CCC[C@H]1C(=O)N[C@H](C)C(N)=O [Example 2m, N-3-(4-Hydroxyphenyl)propionyl-D2Nal-D4ClPhe-D3Pal-Ser-NMeTyr-DLys(N-epsilon-Nicotinyl)-Leu-Lys(N-epsilon -Isopropyl)-Pro-DAlaNH2] (Desaminotyrosyl-[d2Nal][dPhe(4-Cl)][d3Pal]S[NMeY][dK](Nicotinoyl)L[Lys(iPr)]P[dA]-NH2) | 0.02 nM
5 | CC(C)C[C@H](NC(=O)[C@@H](CCCCNC(=O)c1cccnc1)NC(=O)[C@H](Cc1ccc(O)cc1)N(C)C(=O)[C@H](CO)NC(=O)[C@@H](Cc1cccnc1)NC(=O)[C@@H](Cc1ccc(Cl)cc1)NC(=O)[C@@H](Cc1ccc2ccccc2c1)NC(=O)C(C)C)C(=O)N[C@@H](CCCCNC(C)C)C(=O)N1CCC[C@H]1C(=O)N[C@H](C)C(N)=O [Example 2c, N-Isobutyryl-D2Nal-D4ClPhe-D3Pal- Ser-NMeTyr-DLys(N-epsilon-Nicotinyl)-Leu-Lys(N-epsilon-Isopropyl)-Pro-DAlaNH2] (Isobutyryl-[d2Nal][dPhe(4-Cl)][d3Pal]S[NMeY][dK](Nicotinoyl)L[Lys(iPr)]P[dA]-NH2) | 0.0178 nM
6 | CC(C)C[C@H](NC(=O)[C@@H](CCCNC(N)=O)NC(=O)[C@H](Cc1ccc(O)cc1)N(C)C(=O)[C@H](CO)NC(=O)[C@@H](Cc1cccnc1)NC(=O)[C@@H](Cc1ccc(Cl)cc1)NC(=O)[C@@H](Cc1ccc2ccccc2c1)NC(=O)N1CCN(C)CC1)C(=O)N[C@@H](CCCNC(=N)N)C(=O)N1CCC[C@H]1C(=O)N[C@H](C)C(N)=O [Example 8d, N-(N'-Methylpiperazinylcarbonyl)-D2Nal-D4ClPhe-D3Pal-Ser-NMeTyr-DCit-Leu-Arg-Pro-DAlaNH2] ({Piperazinyl(4-Me)-CO}-[d2Nal][dPhe(4-Cl)][d3Pal]S[NMeY][dCit]LRP[dA]-NH2) | 0.0398 nM
7 | CC(C)C[C@H](NC(=O)[C@@H](CCCNC(N)=O)NC(=O)[C@H](Cc1ccc(O)cc1)N(C)C(=O)[C@H](CO)NC(=O)[C@@H](Cc1cccnc1)NC(=O)[C@@H](Cc1ccc(Cl)cc1)NC(=O)[C@@H](Cc1ccc2ccccc2c1)NC(=O)NCc1cccnc1)C(=O)N[C@@H](CCCNC(=N)N)C(=O)N1CCC[C@H]1C(=O)N[C@H](C)C(N)=O [Example 8f, N-(3-Pyridyhnethylaminocarbonyl)-D2Nal-D4ClPhe-D3Pal-Ser-NMeTyr-DCit-Leu-Arg-Pro-DAlaNH2] ({NH(3-picolyl)-CO}-[d2Nal][dPhe(4-Cl)][d3Pal]S[NMeY][dCit]LRP[dA]-NH2) | 0.0363 nM
8 | CC(C)C[C@H](NC(=O)[C@@H](CCCCNC(=O)c1cccnc1)NC(=O)[C@H](Cc1ccc(O)cc1)N(C)C(=O)[C@H](CO)NC(=O)[C@@H](Cc1cccnc1)NC(=O)[C@@H](Cc1ccc(Cl)cc1)NC(=O)[C@@H](Cc1ccc2ccccc2c1)NC(=O)Cc1ccccc1)C(=O)N[C@@H](CCCCNC(C)C)C(=O)N1CCC[C@H]1C(=O)N[C@H](C)C(N)=O [Example 2k, N-Phenylacetyl-D2Nal-D4ClPhe-D3Pal-Ser-NMeTyr-DLys(N-epsilon-Nicotinyl)-Leu-Lys(N-epsilon-Isopropyl)-Pro-DAlaNH2] (PhAc-[d2Nal][dPhe(4-Cl)][d3Pal]S[NMeY][dK](Nicotinoyl)L[Lys(iPr)]P[dA]-NH2) | 0.0141 nM
9 | CC(C)C[C@H](NC(=O)[C@@H](CCCNC(N)=O)NC(=O)[C@H](Cc1ccc(O)cc1)N(C)C(=O)[C@H](CO)NC(=O)[C@@H](Cc1cccnc1)NC(=O)[C@@H](Cc1ccc(Cl)cc1)NC(=O)[C@@H](Cc1ccc2ccccc2c1)NC=O)C(=O)N[C@@H](CCCNC(=N)N)C(=O)N1CCC[C@H]1C(=O)N[C@H](C)C(N)=O [Example 5a, N-Formyl-D2Nal-D4ClPhe-D3Pal-Ser-NMeTyr-DCit-Leu-Arg-Pro-DAlaNH2] (For-[d2Nal][dPhe(4-Cl)][d3Pal]S[NMeY][dCit]LRP[dA]-NH2) | 0.00447 nM
10 | CC(C)C[C@H](NC(=O)[C@@H](CCCCNC(=O)c1cccnc1)NC(=O)[C@H](Cc1ccc(O)cc1)N(C)C(=O)[C@H](CO)NC(=O)[C@@H](Cc1cccnc1)NC(=O)[C@@H](Cc1ccc(Cl)cc1)NC(=O)[C@@H](Cc1ccc2ccccc2c1)NC(=O)CC#N)C(=O)N[C@@H](CCCCNC(C)C)C(=O)N1CCC[C@H]1C(=O)N[C@H](C)C(N)=O [Example 2e, N-Cyanoacetyl-D2Nal-D4ClPhe-D3Pal-Ser-NMeTyr-DLys(N-epsilon-Nicotinyl)-Leu- Lys(N-epsilon-Isopropyl)-Pro-DAlaNH2] (X4-[d2Nal][dPhe(4-Cl)][d3Pal]S[NMeY][dK](Nicotinoyl)L[Lys(iPr)]P[dA]-NH2) | 0.00316 nM
11 | CC(C)C[C@H](NC(=O)[C@@H](CCCCNC(=O)c1cccnc1)NC(=O)[C@H](Cc1ccc(O)cc1)N(C)C(=O)[C@H](CO)NC(=O)[C@@H](Cc1cccnc1)NC(=O)[C@@H](Cc1ccc(Cl)cc1)NC(=O)[C@@H](Cc1ccc2ccccc2c1)NC(=O)CCC(=O)O)C(=O)N[C@@H](CCCCNC(C)C)C(=O)N1CCC[C@H]1C(=O)N[C@H](C)C(N)=O [Example 3, N-Succinyl-D2Nal-D4ClPhe-D3Pal-Ser-NMeTyr-DLys(Nicotinyl)-Leu-Lys(N-epsilon-lsopropyl.)-Pro-DAlaNH2] (Suc-[d2Nal][dPhe(4-Cl)][d3Pal]S[NMeY][dK](Nicotinoyl)L[Lys(iPr)]P[dA]-NH2) | 0.0513 nM
12 | CC(C)C[C@H](NC(=O)[C@@H](CCCNC(N)=O)NC(=O)[C@H](Cc1ccc(O)cc1)N(C)C(=O)[C@H](CO)NC(=O)[C@@H](Cc1cccnc1)NC(=O)[C@@H](Cc1ccc(Cl)cc1)NC(=O)[C@@H](Cc1ccc2ccccc2c1)NC(=O)NCCc1ccccn1)C(=O)N[C@@H](CCCNC(=N)N)C(=O)N1CCC[C@H]1C(=O)N[C@H](C)C(N)=O [Example 8g, N-(2-Pyridylethylaminocarbonyl)-D2Nal-D4ClPhe-D3Pal-Ser-NMeTyr-DCit-Leu-Arg-Pro-DAlaNH2] ({NH(2-(2-pyridyl)ethyl)-CO}-[d2Nal][dPhe(4-Cl)][d3Pal]S[NMeY][dCit]LRP[dA]-NH2) | 0.0178 nM
13 | CC(C)C[C@H](NC(=O)[C@@H](CCCNC(N)=O)NC(=O)[C@H](Cc1ccc(O)cc1)N(C)C(=O)[C@H](CO)NC(=O)[C@@H](Cc1cccnc1)NC(=O)[C@@H](Cc1ccc(Cl)cc1)NC(=O)[C@@H](Cc1ccc2ccccc2c1)NC(=O)C1CC1)C(=O)N[C@@H](CCCNC(=N)N)C(=O)N1CCC[C@H]1C(=O)N[C@H](C)C(N)=O [Example 5e, N-Cyclopropylcarbonyl-D2Nal-D4ClPhe-D3PaI-Ser-NMeTyr-DCit-Leu-Arg-ProDAlaNH2] (Cyclopropanecarbonyl-[d2Nal][dPhe(4-Cl)][d3Pal]S[NMeY][dCit]LRP[dA]-NH2) | 0.0112 nM
